From patent US20160361252A1, “ANHYDROUS MULTIPHASE GEL SYSTEM” (priority 2005, published 2016)

Test system: DNFB-induced allergic contact dermatitis
Assay: DNFB-induced contact dermatitis in mice (allergic contact dermatitis model)
Format: in vivo, mice (NMRI)
Settings: ascrolimus applied in the EDR system, 0.1, 0.3, 1.0%, ear homogenates, 24 hours
Text: Various models can be used in order to determine the effectiveness and bioavailability of active substances as a function of the topical medication used. A suitable pharmacological model within the scope of anti-inflammatory therapy on the skin is represented by the “Irritant contact dermatitis (ICD)” model in mice. In this model, the inflammatory components of eczema are imitated. This inflammatory aspect likewise plays a role in allergic contact dermatitis and atopic dermatitis with the participation of allergen-specific T cells intrinsic to the skin. Therefore, a T-cell-dependent model of allergic contact dermatitis (in reaction to dinitrofluorobenzene, DNFB) can be utilized. Acute and chronic allergic contact dermatitis (ACD) is characterized by a type-1 dominated cytokine profile. Therefore, the ACD model induced by dinitrofluorobenzene (DNFB) was used in order to assess in vivo the activity of the active substance “ascrolimus” (topical immunomodulator). After sensitizing by means of DNFB, edema was produced by subsequent application of the same contact allergens and therefore, a cutaneous infiltration of allergenic T-cells and granulocytes was triggered. The mice (NMRI) were sensitized with 0.5% DNFB on day 0 and day 1. On day 5, the mice were again treated with 0.3% DNFB. […]

Question: With ascrolimus as the substance, how does the “peroxidase activity as a measure for granulocyte infiltration (delta peroxidase, FIG. 5)” value read?
Answer: significant concentration-dependent inhibition
